“And” between values parts separate entries of the source, which are not always exact repeats. Equal values may be shown once.
Legend:
MMP-2 = biological target: T1, MMP-2 (Homo sapiens, UniProt P08253); test: isothermal titration calorimetry with MMP-2; type: binding; conditions: ITC, 10 mM NaCl at 25° C.
T1 sequence (P08253 110-660): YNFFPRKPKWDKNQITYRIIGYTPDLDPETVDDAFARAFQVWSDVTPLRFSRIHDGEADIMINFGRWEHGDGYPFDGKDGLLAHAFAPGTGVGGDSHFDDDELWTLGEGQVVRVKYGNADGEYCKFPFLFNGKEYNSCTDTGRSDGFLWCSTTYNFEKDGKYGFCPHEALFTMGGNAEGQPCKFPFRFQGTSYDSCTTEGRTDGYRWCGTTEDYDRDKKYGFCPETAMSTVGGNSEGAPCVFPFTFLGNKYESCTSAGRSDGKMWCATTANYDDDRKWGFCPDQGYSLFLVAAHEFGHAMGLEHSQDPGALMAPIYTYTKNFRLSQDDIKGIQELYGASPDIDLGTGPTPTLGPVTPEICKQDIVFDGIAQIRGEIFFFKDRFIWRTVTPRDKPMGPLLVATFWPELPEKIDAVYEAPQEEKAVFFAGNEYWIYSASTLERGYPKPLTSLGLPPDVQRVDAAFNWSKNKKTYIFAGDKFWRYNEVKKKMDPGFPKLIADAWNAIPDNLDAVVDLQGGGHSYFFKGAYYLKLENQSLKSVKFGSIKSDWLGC

EpiDerm skin model = test: viability assay (MTT) in EpiDerm skin model; type: cell-based; conditions: peptide at 500 μM and 2 mM, relative to PBS control
Description: The sample containers were transferred to 6 well plates that contained fresh media. All peptides were dissolved in PBS at a final concentration of 10 mM, and 100 μL each peptide solution was pipetted onto the surface of the Epiderm sample container. Incubation was continued for 12 hours at 37° C., 5% CO2. After the incubation period, the sample containers were washed three times with PBS and the sample containers were transferred to a 24 well plate that contained 300 μL of MTT assay media per well (MTT concentration was 1 mg/mL). The colorimetric assay was allowed to develop for three hours (incubation at 37° C., 5% CO2). Sample containers were then transferred to a 24 well culture plate that contained 2 mL of isopropanol per well. Extraction of the colored precipitate occurred over a period of four hours at room temperature. Absorbance readings were taken at 570 nm and 650 nm for each sample. The percent viability of each sample relative to a PBS control was calculated as: 100×(OD570^sam−OD650^sam)/(OD570^con−OD650^con) (6) Routinely, the peptide sample was assayed in triplicate. Results

[1] = test system: normal human epidermal keratinocytes; test: keratinocyte proliferation, Cell Titer 96, OD 490 nm; type: cell-based; conditions: 48 hours
Description: The proliferative response of these human skin keratinocytes to the 19mer peptide was measured in a 96-well assay system using keratinocyte basal medium (KBM, Clonetics, catalog number CC-3103) as a control. […] The plates were incubated for 24 hours at 37° C. in a humidified 5% CO2 atmosphere. […] In addition, 100 μl of vehicle KBM was added to 10 wells as control. The plate was incubated for 48 hours at 37° C. in a humidified, 5% CO2 atmosphere. After incubation, 20 μl of Cell Titer 96 Aqueous One Solution was added to all wells. The plate was swirled gently and placed back in the incubator for 3 hours. The spectrophotometric absorbance of each well was read at 490 nm. Results were analyzed statistically using one-way ANOVA.

[2] = test system: normal human dermal fibroblasts (NHDF); test: NHDF migration assay, 48-well chemotaxis chamber; type: cell-based
Description: Normal, human dermal fibroblasts (NHDF) were obtained from Biowhittaker, (Walkersville, Md.) and propagated in T75 flasks in FBM media (500 mL, Biowhittaker) containing insulin, hFGF-b, GA-1000, and fetal bovine serum (10 mL) for up to 12 passages. For the migration assay, NHDF were washed once with 10 mL of Hank's buffered saline solution (HBSS). Three milliliters of trypsin (0.25%) in EDTA were added to the T75 flask for no more than five minutes to remove NHDF from the flask. NHDF in trypsin solution were added to 7 mL of FBM with no supplements added. NHDF were centrifuged for 5 minutes, and the supernatant was removed. NHDF were resuspended in 10 mL of FBM for counting. NHDF were centrifuged for another 5 minutes, and the supernatant was removed. NHDF were resuspended at 1×10^6 cells per mL in FBM without supplements. It was important to use FBM media only in migration assays because the complete media contains fibroblast growth factor and serum, both of which will trigger migration of fibroblasts.
Peptides were synthesized and purified by the Microchemical Facility at Emory University or by SigmaGenesis. All peptides were analyzed by mass spectrometry after HPLC to assess purity. Approximately 0.5–2.0 milligrams of peptide were used to make fresh stock solutions (5 mg/mL in PBS) for each migration assay. The peptide stock solutions in PBS were used to make more dilute solutions (1 mg/mL, 100 μg/mL, 10 μg/mL, 1 μg/mL, 100 ng/mL, 10 ng/mL) in FBM (without supplements) for the migration assays.
Polyvinylpyrrolidone-free polycarbonate membranes with […] pores (Neuroprobe, Inc., Gaithersburg, Md.) were washed with 90% ethanol for 15 minutes and rinsed four times with deionized water. Membranes were then placed into a glass dish containing an aqueous solution of 5 μg/mL gelatin. The glass dish was placed in to a water bath at about 90° C. for one hour. Membranes were removed from the gelatin solution and were allowed to dry for one hour in the 37° C. incubator.
A 48-well chemotaxis chamber (Neuroprobe, Inc., Gaithersburg, Md.) (see FIG. 20) was used for the migration assays. Twenty-eight μL of each test solution were added to the bottom wells of the chamber in quadruplicate. A gelatin-treated membrane was placed carefully on top of the bottom wells. The gasket and top part of chamber were then placed carefully on top of the membrane. The apparatus was tightened using six thumbscrews. A solution of NHDF containing an estimated cell density (2×10^5 cells per mL) was made by adding 320 μL of the 1×10^6 cells per mL solution to 1.28 mL of FBM (no supplements). Fifty microliters of the 2×10^5 cells per mL NHDF solution were added to the top part of each well in the chamber. The chamber was placed in the incubator at 37° C./5% CO2 for three hours. The chamber was removed, the thumbscrews were removed, and the chamber was turned upside down on a paper towel. […] The membrane was carefully removed. […] The membrane was fixed with methanol and stained using the Diff-Quik Staining Solutions I and II. The nuclei of NHDF are stained purple. The membrane was mounted on a glass slide using cedarwood immersion oil and a cover slip. […] The average number of migrated NHDF in the negative control was subtracted from the experimental (peptide) data and positive control data.

[3] = MMP-2, 20 mM cacodylate (pH 6.8)

CC(C)[C@H](NC(=O)[C@H](CC(=O)O)NC(=O)[C@@H]1CCCN1C(=O)[C@H](CC(N)=O)NC(=O)CNC(=O)[C@H](CS)NC(=O)[C@H](CCCNC(=N)N)NC(=O)[C@@H]1CCCN1)C(=O)N[C@@H](C)C(=O)N[C@@H](CC(N)=O)C(=O)N[C@@H](Cc1ccc(O)cc1)C(=O)N[C@@H](CC(N)=O)C(=O)N[C@@H](Cc1ccccc1)C(=O)N[C@@H](Cc1ccccc1)C(=O)N1CCC[C@H]1C(=O)N[C@@H](CCCNC(=N)N)C(=O)N[C@@H](CCCCN)C(=O)N1CCC[C@H]1C(=O)N[C@@H](CCCCN)C(=O)O [Peptide 19-mer]
Stoichiometry (MMP-2; MMP-2 20 μM, 19-mer 1 mM, 20 mM cacodylate (pH 6.8)): 0.99 ± 0.03 | ΔH (MMP-2; [3]): -15.4 ± 2.05 kcal/mol | ΔS (MMP-2; [3]): −21.1 ± 1.8 cal mol^−1 K^−1 | total average viability (EpiDerm skin model): 97.6% | keratinocyte cell growth versus control ([1]; 1×10^−4 M, P<0.001): even greater cell growth | keratinocyte cell density versus control ([1]; 1×10^−5 M, P<0.01): significantly greater cell density | keratinocyte cell proliferation versus control ([1]; 1×10^−6 M, P>0.05): only a small amount of cell proliferation | NHDF migration, percent of the plasma fibronectin positive control ([2]; 100 μg/mL peptide): 46±3% and 46%±3% | NHDF migration, percent of the plasma fibronectin positive control ([2]; 1000 μg/mL peptide): 55±3% and 55%±3% | NHDF migration, percent of the plasma fibronectin positive control ([2]; concentrations below 100 μg/mL): about 20%

— patent US7148194B2, “Method to increase fibronectin” (Kimberly-Clark Worldwide, Inc., priority 2002, dated 2006)
